B1: phosphotransferase protein IIA^Glc of E. coli (natural protein, UniProt P69783 1-169, looked up)
chain: MGLFDKLKSLVSDDKKDTGTIEIIAPLSGEIVNIEDVPDVVFAEKIVGDGIAIKPTGNKMVAPVDGTIGKIFETNHAFSIESDSGVELFVHFGIDTVELKGEGFKRIAEEGQRVKVGDTVIEFDLPLLEEKAKSTLTPVVISNMDEIKELIKLSGSVTVGETPVIRIKK

Key:
MelBSt [1] = biological target: T1, MelBSt (Salmonella enterica, UniProt P30878); assay: Trp→D^2G FRET, displacement of bound D^2G; format: binding; settings: read-out: RSO membrane vesicles, 10 μM D^2G, 20 mM NaCl, KPi pH 7.5
MelBEc [2] = biological target: T2, MelBEc (Escherichia coli, UniProt P02921); assay: isothermal titration calorimetry; format: binding; settings: purified in 0.01% MNG-3, 20 mM Tris-HCl pH 7.5, 100 mM NaCl, 10% glycerol, 25 °C
MelBSt [3] = biological target: T1, MelBSt; assay: isothermal titration calorimetry; format: binding; settings: purified in 0.01% MNG-3, 20 mM Tris-HCl pH 7.5, 100 mM NaCl, 10% glycerol, 25 °C
MelBEc [4] = biological target: T2, MelBEc; assay: Trp→D^2G FRET, displacement of bound D^2G; format: binding; settings: read-out: RSO membrane vesicles, 10 μM D^2G, 20 mM NaCl, KPi pH 7.5
MelBSt [5] = biological target: MelBSt (Salmonella enterica, UniProt P30878, R295C); settings: RSO vesicles solubilized with MNG-3, 10 μM D^2G, 20 mM NaCl
[6] = biological target: WT melibiose permease of Escherichia coli (MelBEc) (Escherichia coli, UniProt P02921 1-473); assay: ITC
[7] = biological target: R141C mutant of the melibiose permease of Salmonella typhimurium (R141C MelBSt) (Salmonella typhimurium, UniProt P30878 1-476, R141C); assay: ITC

T2 sequence (P02921 2-473): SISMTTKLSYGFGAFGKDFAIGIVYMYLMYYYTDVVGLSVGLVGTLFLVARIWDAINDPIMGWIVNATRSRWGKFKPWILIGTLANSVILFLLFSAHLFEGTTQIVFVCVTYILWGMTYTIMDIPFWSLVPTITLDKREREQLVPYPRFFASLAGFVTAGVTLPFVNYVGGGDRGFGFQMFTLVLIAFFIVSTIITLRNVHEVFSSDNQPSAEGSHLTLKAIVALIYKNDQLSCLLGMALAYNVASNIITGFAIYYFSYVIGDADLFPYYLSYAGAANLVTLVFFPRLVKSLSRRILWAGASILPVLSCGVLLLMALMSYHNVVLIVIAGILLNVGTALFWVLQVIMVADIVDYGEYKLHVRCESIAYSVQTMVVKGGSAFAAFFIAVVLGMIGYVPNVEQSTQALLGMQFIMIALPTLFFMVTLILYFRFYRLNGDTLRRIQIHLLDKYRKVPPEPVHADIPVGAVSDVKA

Molecule	IC50 (MelBSt [1]) [mM]	Kd (MelBEc [2]) [mM]	Kd (MelBSt [3]) [mM]	IC50 (MelBEc [4]) [µM]	IC50 (MelBSt [5]) [mM]	binding result [6]	Kd [7] [nM]
OC[C@H]1O[C@H](OC[C@H]2OC(O)[C@H](O)[C@@H](O)[C@@H]2O)[C@H](O)[C@@H](O)[C@H]1O (stereo partly shown) [melibiose]	2.42 ± 0.22	1.28 ± 0.06	2.51 ± 0.13	660 ± 160	5.49 ± 0.83	–	–
B1	–	–	–	–	–	binds	2000

Reference: article PMC4646067 (Biochemistry, 2015)
